Experimental data as given in patent US20230248665A1, “COMPOSITION COMPRISING DIMETHYLCHALCONE DERIVATIVE FOR PREVENTION OR TREATMENT OF METABOLIC DISEASE” (SEOUL NATIONAL UNIVERSITY R & DB FOUNDATION, priority 2020, published 2023).

What was measured:
Assay type in all cases: cell-based
[1] = system: vascular endothelial cells (HUVECs) and THP-1 (human monocyte) immune cells; assay: Binding of THP-1 immune cells to TNFα-treated vascular endothelial cells (HUVECs); conditions: 10 µM with 10 ng/mL TNFα, 24 hours, then THP-1 for 1 hour; FIG. 5
Protocol: In the early stages of progression of vascular diseases such as arteriosclerosis, adhesion materials are expressed in vascular endothelial cells due to various environmental factors, thereby increasing the binding of immune cells. Therefore, in order to check whether the DMC derivatives of Example 1 affect the binding between vascular endothelial cells and immune cells, vascular endothelial cells (HUVECs) were treated with 10 ng/mL TNFα and 10 µM DMC derivative and cultured for 24 hours. Then, THP-1 (human monocyte) immune cells labeled with a fluorescent protein were added to the culture solution, and the cells were additionally cultured for 1 hour. After the culture was completed, unbound immune cells were removed using a phosphate buffer solution, and then the degree of binding of immune cells to vascular endothelial cells was determined by measuring the intensity of fluorescence.

[2] = system: human kidney proximal tubule epithelial cell (HK-2) cell line; assay: Antioxidant effect, intracellular reactive oxygen species (DCF-DA) in HK-2 kidney cells after H2O2; conditions: 1 µM for 18 hours, then 500 µM H2O2 for 6 hours, FIG. 6
Protocol: First, the antioxidant effect was checked using kidney cells. More specifically, a human kidney proximal tubule epithelial cell (HK-2) cell line was treated with 1 µM DMC derivative and cultured for 18 hours. Then, 500 µM H2O2 was added to the culture medium and the culture medium was incubated for 6 hours. Thereafter, the amount of intracellular reactive oxygen species (iROS) was measured using dichlorohydro-fluorescein diacetate (DCF-DA).

AMPK = AMPK activity, western blotting of phosphorylated AMPK in C2C12 myotubes; conditions: 10 µM, 24 hours, FIG. 2
Text: AMP-activated protein kinase (AMPK) is a member of serine/threonine kinases, and is an enzyme known as an energy sensor which senses the intracellular energy state. Moreover, the activation of AMPK is known to show the effect of increasing glucose transport and promoting fatty acid oxidation in skeletal muscle, and to […] the synthesis of cholesterol and triglycerides, decrease lipogenesis, and increase fatty acid oxidation, and ketogenesis, and the like in the liver. Further, the activation of AMPK is known to reduce adipogenesis in adipose tissue and increase insulin secretion in pancreatic beta cells, thereby being able to be applied to the treatment of various metabolic diseases. Therefore, western blotting was performed in order to confirm the effect of the DMC derivatives of Example 1 on AMPK activity. More specifically, the C2C12 myoblasts were primarily cultured in DMEM supplemented with 10% fetal bovine serum, and then cultured in DMEM supplemented with 2% horse serum for 5 days to differentiate into myotubes. Then, the differentiated myotubes were treated with 10 µM DMC derivative and cultured for 24 hours, and then cells were collected, and disrupted using an ultrasonic disperser to obtain proteins. Next, western blotting was performed using a pAMPK antibody (Cell Signaling Technology) and an AMPK antibody (Cell Signaling Technology) to measure the amount of phosphorylated AMPK. 1 mM AICAR was used as a positive control, and 20 µg of protein was used for each sample in western blotting.

[3] = system: rat aortic smooth muscle cells; assay: PDGF-induced migration of vascular smooth muscle cells; conditions: 1 µM with 10 ng/mL PDGF; FIG. 4
Protocol: Proliferation and migration of vascular smooth muscle cells are known to be essential steps in the progression of vascular diseases such as restenosis and arteriosclerosis. Therefore, in order to confirm the effect of the DMC derivatives of Example 1 on the migration of rat aortic smooth muscle cells, smooth muscle cells were treated with 10 ng/mL platelet-derived growth factor (PDGF) and 1 µM DMC derivative and cultured. Then, the degree of cell migration was measured.

Row | SMILES | binding of immune cells to vascular endothelial cells (fluorescence) [1] | amount of intracellular reactive oxygen species (ROS) [2] | activity of AMPK (phosphorylated AMPK) (AMPK) | migration of vascular smooth muscle cells [3]
1 | COc1c(C)c(O)c(C)c(O)c1C(=O)/C=C/c1ccc(C(F)(F)F)cc1 [Chemical Formula 9, 1-(2′,4′-dihydroxy-6′-methoxy-3′,5′-dimethylphenyl)-3-(4-(trifluoromethyl)phenyl)-2-propen-1-one] | similarly or more effectively suppressed the binding of immune cells than Rosi | effectively reduced ROS | increased the activity of AMPK similarly to or more effectively than the positive controls | 
2 | COc1c(C)c(O)c(C)c(O)c1C(=O)/C=C/c1ccc(N(C)C)cc1 [Chemical Formula 7, 1-(2,4′-dihydroxy-6′-methoxy-3′,5′-dimethylphenyl)-3-(4-(N,N-dimethylamino)phenyl)-2-propen-1-one] | similarly or more effectively suppressed the binding of immune cells than Rosi | effectively reduced ROS |  | 
3 | COc1c(C)c(O)c(C)c(O)c1C(=O)/C=C/c1ccc(Cl)cc1 [Chemical Formula 8, 1-(2′,4′-dihydroxy-6′-methoxy-3′,5′-dimethylphenyl)-3-(4-chlorophenyl)-2-propen-1-one] | similarly or more effectively suppressed the binding of immune cells than Rosi | effectively reduced ROS | increased the activity of AMPK similarly to or more effectively than the positive controls | 
4 | COc1c(C)c(O)c(C)c(O)c1C(=O)/C=C/c1ccc(C)cc1C [Chemical Formula 39, 1-(2′,4′-dihydroxy-6′-methoxy-3′,5′-dimethylphenyl)-3-(2,4-dimethylphenyl)-2-propen-1-one] | similarly or more effectively suppressed the binding of immune cells than Rosi |  | increased the activity of AMPK similarly to or more effectively than the positive controls | similarly or more effectively suppressed cell migration by PDGF than AICAR and Rosi, which were used as positive controls, and DMC
5 | COCOc1c(C)c(O)c(C(=O)/C=C/c2cccc(F)c2)c(OC)c1C [Chemical Formula 35, 1-(2′-hydroxy-4′-(methoxymethoxy)-6′-methoxy-3′,5′-dimethylphenyl)-3-(3-fluorophenyl)-2-propen-1-one] | similarly or more effectively suppressed the binding of immune cells than Rosi | effectively reduced ROS |  | 
6 | COc1ccc(OC)c(/C=C/C(=O)c2c(O)c(C)c(O)c(C)c2OC)c1 [Chemical Formula 10, 1-(2′,4′-dihydroxy-6′-methoxy-3′,5′-dimethylphenyl)-3-(2,5-dimethoxyphenyl)-2-propen-1-one] | similarly or more effectively suppressed the binding of immune cells than Rosi | effectively reduced ROS |  | 
7 | COCOc1c(C)c(O)c(C(=O)/C=C/c2ccccc2Cl)c(OC)c1C [Chemical Formula 38, 1-(2′-hydroxy-4′-(methoxymethoxy)-6′-methoxy-3′,5′-dimethylphenyl)-3-(2-chlorophenyl)-2-propen-1-one] | similarly or more effectively suppressed the binding of immune cells than Rosi |  |  | similarly or more effectively suppressed cell migration by PDGF than AICAR and Rosi, which were used as positive controls, and DMC
8 | COCOc1c(C)c(O)c(C(=O)/C=C/c2ccc(C(F)(F)F)cc2)c(OC)c1C [Chemical Formula 14, 1-(2′-hydroxy-4′-(methoxymethoxy)-6′-methoxy-3′,5′-dimethylphenyl)-3-(4-(trifluoromethyl)phenyl)-2-propen-1-one] | similarly or more effectively suppressed the binding of immune cells than Rosi | effectively reduced ROS |  | 
